Assay results reported in patent publication US20120255853A1, “Method for Producing Superoxide, Method for Evaluating Superoxide Scavenging Ability, Device for Producing Superoxide, and Device for Evaluating Superoxide Scavenging Ability” (Sapporo Medical University, priority 2009, published 2012).

Key:
[1] = Inhibition of radical generation by SOD, superoxide generated by xanthine oxidase (ESR); format: biochemical; settings: SOD 0.5, 1, 1.5 U/mL; hypoxanthine 0.39 mmol/L, xanthine oxidase 0.2 U/mL; compared with riboflavin system
Protocol: Into a 50 mmol/L phosphate buffer with pH 7.4, hypoxanthine, CYPMPO (Radical Research Inc.), and diethylenetriaminopentaacetic acid (DETAPAC) were each added at 0.39 mmol/L, 10 mmol/L, and 0.1 mmol/L, respectively, to prepare an aqueous solution (SOD-free aqueous solution). Further, to this aqueous solution, SOD (Sigma) was added at a concentration of 0.5 U/mL, 1 U/mL, and 1.5 U/mL to separately prepare aqueous solutions with added SOD.
To each of the SOD-free aqueous solution and aqueous solutions with added SOD thus prepared, xanthine oxidase was added at 0.2 U/mL. Following a similar operation to Example 1 (2), each of the aqueous solutions was measured by ESR to obtain a spectrum. Subsequently, based on the spectrum thus obtained, the amount of a radical generated was quantified. Measurement by ESR was performed 60 seconds after the addition of xanthine oxidase.
Based on the quantification results of the amount of a radical generated in the present Examples (1) and (2), the radical generation-inhibitory rate by SOD was calculated by the following formula 5.
Radical generation-inhibitory rate by SOD=(S0−S)/[…] (Formula 5)

[2] = Inhibition of radical generation by SOD, superoxide generated by light irradiation of riboflavin (ESR); format: biochemical
Protocol: To the aqueous solution thus prepared, superoxide dismutase (SOD) (Sigma), which is an enzyme that specifically scavenges superoxide, was added at 10 U/mL to separately prepare an aqueous solution with added SOD.
The aqueous solutions prepared in the present Example (1) (aqueous solutions with or without SOD) were each introduced into the sample tube of the electron spin resonance device JES-RE1X (JEOL Ltd.). Using a xenon lamp, the sample tube was irradiated with visible light of 1500 lux for 30 seconds. Subsequently, a measurement was made by ESR under the following measurement conditions to obtain a spectrum. The spectrum of the SOD-free aqueous solution was obtained as Spectrum A, and the spectrum of the aqueous solution with added SOD was obtained as Spectrum B. The results thus obtained are shown in FIG. 10. […]
Following a similar operation to Example 1 (2), each of the aqueous solutions thus prepared was measured by ESR to obtain a spectrum. Based on the spectrum thus obtained, the amount of a radical generated was quantified.
Based on the quantification results of the amount of a radical generated in the present Examples (1) and (2), the radical generation-inhibitory rate by SOD was calculated by the following formula 5. […]

With superoxide dismutase [SOD] as the substance, how does the “Radical generation-inhibitory rate by SOD” value [1] read?
Its value is “approximately the same values”.

What about the “Radical generation-inhibitory rate by SOD” value ([2]; SOD 0.5, 1, 1.5 U/mL, light irradiation of riboflavin, compared with xanthine oxidase system) of the same substance?
The value was “approximately the same values”.

What about the “Superoxide scavenging (radicals generated with added SOD)” value ([2]; SOD 10 U/mL, riboflavin 1 μmol/L, EDTA 5 mmol/L, CYPMPO 10 mmol/L) of the same substance?
Its value is “generated a small amount of EDTA radicals but not superoxide”.
